Patent US20040157866A1, “Amide compounds” (priority 2001, published 2004)

Key:
[1] = system: Apo B secretion; test: Test 1: Measurement of Inhibition of Apo B Secretion (HepG2 cells, ELISA); format: cell-based; conditions: 1 × 10^−8 M test compound, 15-hour incubation, 0.1% DMSO treated cells as controls; for inhibition at 0.01 µM: Homo sapiens
Description: Test 1: Measurement of Inhibition of Apo B Secretion
HepG2 cells were seeded in Eagles medium containing 10% fetal calf serum (FCS) at a density of 30000 cells/well in 96-well plates and allowed to grow for 3 days before treatment. At this time, the medium was replaced with fresh medium containing 0.1% dimethyl sulfoxide (DMSO) and the indicated concentrations of a test compound. After 15-hour incubation, the amount of Apo B and Apo AI accumulated in the media was determined by ELISA.
The assay was carried out at room temperature. A flat bottomed micro ELISA plate (manufactured by Nunc) was coated with an anti Apo B monoclonal antibody solution ([…] in 0.05% carbonate buffer, pH 9.6) by adding the antibody solution at a volume of 100 μl per well. After 1-hour incubation on a plate mixer, the unbound materials were removed by washing the well 3 times with a washing buffer (phosphate buffered saline, pH 7.2 containing 0.1% bovine serum albumin and 0.05% Tween-20). Then 20 μl of a solution of the test compound (dissolved in the culture medium) and 100 μl of a solution of peroxidase coupled anti Apo B antibody were added. After 1-hour incubation on a plate mixer, washing was performed 3 times to remove the unbound materials. A freshly prepared substrate solution (2.5 mg/ml ortho-phenylene diamine and 0.018% H2O2 in 0.11M Na2HPO4-0.044 M sodium citrate buffer, pH 5.4) at a volume of 200 μl was then added to each well. After 20-minute incubation, the enzyme reaction was terminated by adding 50 μl of 0.5 M sulfuric acid. Absorbance of each well was determined at 490 nm using a microplate reader. Apo B concentration was calculated from a standard curve generated from purified Apo B standard that was run in parallel in the same plate. Inhibition of Apo B secretion by the test compound is calculated taking 0.1% DMSO treated cells as controls.
Measurement of Apo AI was performed similar to that of Apo B, except for diluting the sample 11-fold with a dilution buffer (phosphate buffered saline, pH 7.2 containing 0.5% bovine serum albumin and 0.05% Tween-20).
Apo B secretion inhibitors are identified as compounds that decrease Apo B secretion without affecting the secretion of Apo AI.

[2] = system: ddY-mice; test: Test 2: Lipids Lowering Effect on ddY-Mice; format: in vivo; conditions: male ddY-mice, oral dose 10 mg/kg, relative to baseline; for Cholesterol (% of 0 hr) 2 hr: plasma total-cholesterol 2 hours after administration; for Triglyceride (% of 0 hr) 2 hr: plasma triglyceride 2 hours after administration
Description: Test 2: Lipids Lowering Effect on ddY-Mice
Male ddY-mice were housed in temperature- and humidity-controlled rooms and fed with laboratory chow. The animals were randomized according to their body weight and deprived of food just before the experiment. A blood sample (baseline blood sample) was collected from the retro orbital venous plexus before administration of the test drug, and then the animals were orally dosed with the test drug in a vehicle (aqueous solution of 0.5% methylcellulose). Blood samples were drawn at 2 hours after drug administration for the measurement of cholesterol and triglyceride.
Plasma total-cholesterol and plasma triglyceride were determined by conventional enzyme methods using commercially available kits. The cholesterol CII-Test Wako (Wako Pure Chemical Industries, Ltd.) was used for the measurement of cholesterol, and the triglyceride E-test Wako (Wako Pure Chemical Industries, Ltd.) was used for the measurement of triglyceride.
Lipids lowering effects were shown in percent relative to the baseline level (level at 0 hr).

| SMILES | inhibition at 0.01 µM [1] [%] | Inhibition of Apo B secretion at 1 × 10^−8 M (%) [1] [%] | Cholesterol (% of 0 hr) 2 hr [2] | Triglyceride (% of 0 hr) 2 hr [2] |
| --- | --- | --- | --- | --- |
| Nc1nc(CC(=O)N2CCc3cc(NC(=O)c4ccccc4-c4ccc(C(F)(F)F)cc4)ccc32)cs1 [Example 58, N-{1-[(2-amino-1,3-thiazol-4-yl)acetyl]-2,3-dihydro-1H-indol-5-yl}-4′-(trifluoromethyl)-1,1′-biphenyl-2-carboxamide] | 90.7 |  |  |  |
| Cc1ccc(-c2cc(C)ccc2C(=O)Nc2ccc3c(c2)CCN3C(=O)Cc2ccccn2)cc1 [Example 11, 4′,5-Dimethyl-N-[1-(2-pyridinylacetyl)-2,3-dihydro-1H-indol-5-yl]-1,1′-biphenyl-2-carboxamide] |  | 97.2 |  |  |
| O=C(Nc1ccc2c(c1)CCN2C(=O)Cc1ccccn1)c1ccccc1-c1ccc(C(F)(F)F)cc1 [Example 4, N-[1-(2-Pyridinylacetyl)-2,3-dihydro-1H-indol-5-yl]-4′-(trifluoromethyl)-1,1′-biphenyl-2-carboxamide] |  | 92.0 | 75 % of 0 hr | 13 % of 0 hr |
| O=C(Nc1ccc2c(c1)CCN2CCc1ccccn1)c1ccccc1-c1ccc(C(F)(F)F)cc1 [Example 1, N-{1-[2-(2-Pyridinyl)ethyl]-2,3-dihydro-1H-indol-5-yl}-4′-(trifluoromethyl)-1,1′-biphenyl-2-carboxamide] | 92.2 |  | 90 % of 0 hr | 13 % of 0 hr |
